Results reported in US20260207572A1, “METHODS AND COMPOSITIONS FOR TREATMENT OF SUBJECTS WITH HEPATIC IMPAIRMENTS” (ELEVAR THERAPEUTICS, INC., priority 2022, published 2026).
Like-named read-outs stand apart in the source and are kept apart here.

Test: Phase 1 single-dose plasma pharmacokinetics in subjects with normal hepatic function, mild or moderate hepatic impairment
Assay type: in vivo, human
Conditions: for Plasma concentration, Arithmetic Mean / Plasma concentration, Median: Predose; for AUC(0-t) / AUC(0-inf) / Cmax / Vd/F / half-life / Tmax / concentration at 0.5 h / concentration at 1 h / concentration at 2 h / concentration at 3 h / concentration at 4 h / concentration at 6 h / concentration at 8 h / concentration at 12 h / concentration at 16 h / concentration at 24 h / concentration at 36 h / concentration at 48 h: human, plasma, 200 mg
Source text: Patients: 27 subjects were enrolled within the following groups based on their Child-Pugh (CP) classification score: • Group 1: Matched-control healthy subjects with normal hepatic function; • Group 2: Subjects with mild hepatic impairment (CP Class A, score of 5 or 6); • Group 3: Subjects with moderate hepatic impairment (CP Class B, score of 7 to 9).
A parallel design strategy was adopted for the hepatic impairment groups. Each matched-control healthy subject (Group 1) was enrolled following the enrollment of a mild and/or moderate hepatic impairment subject and was demographically matched by age (±10 years), BMI (±20%), and sex to the enrolled hepatic impairment subject(s). Subjects with normal hepatic function were not matched to more than 1 hepatically-impaired subject within an impairment group; however, subjects with normal hepatic function could be matched to 1 subject from more than 1 hepatic impairment group.
Other noncompartmental parameters could be reported.
The paired t-test was performed separately for each hepatic impairment group and the corresponding matched healthy controls. Estimates of geometric mean ratios in primary PK parameters between each level of impaired hepatic function versus the matched healthy controls were presented along with the corresponding 90% confidence intervals (CIs) for the geometric mean ratios. The p-value assessing the difference between each impairment group and the healthy control group was presented.
The PK analysis was conducted by Covance Early Clinical Biometrics using WinNonlin Version 8.1.

[1] = Mild Hepatic Impairment, 200 mg single oral dose
[2] = Moderate Hepatic Impairment, 200 mg single oral dose
[3] = Normal Hepatic Function, 200 mg single oral dose
[4] = po, Mild Hepatic Impairment, 200 mg single oral dose, read-out: Plasma concentration, Arithmetic Mean
[5] = po, Mild Hepatic Impairment, 200 mg single oral dose, read-out: Plasma concentration, Geometric Mean
[6] = po, Mild Hepatic Impairment, 200 mg single oral dose, read-out: Plasma concentration, Median

Question: What does the source list for `N#CC1(c2ccc(NC(=O)c3cccnc3NCc3ccncc3)cc2)CCCC1` [Rivoceranib, N-[4-(1-cyanocyclopentyl)phenyl]-2-{[(pyridin-4-yl)methyl]amino} pyridine-3-carboxamide]?
Answer: AUC0-∞, Geometric Mean [1]: 2308.66 ng·h/mL; CL/F, Arithmetic Mean [1]: 103.183 L/h; CL/F, Geometric Mean [1]: 86.630 L/h; CL/F, Median [1]: 93.423 L/h; Plasma concentration, Arithmetic Mean [1]: 0.00 ng/mL; Plasma concentration, Median [1]: 0.00 ng/mL; CL/F, Arithmetic Mean [2]: 89.904 L/h; CL/F, Geometric Mean [2]: 81.335 L/h; CL/F, Median [2]: 77.251 L/h; Plasma concentration, Arithmetic Mean [2]: 0.00 ng/mL; Plasma concentration, Median [2]: 0.00 ng/mL; CL/F, Arithmetic Mean [3]: 68.404 L/h; CL/F, Geometric Mean [3]: 65.546 L/h; CL/F, Median [3]: 69.489 L/h; Plasma concentration, Arithmetic Mean [3]: 0.00 ng/mL; Plasma concentration, Median [3]: 0.00 ng/mL; AUC(0-t) (oral, Mild vs Normal: Mild hepatic impairment, paired analysis, read-out: AUC0-t, Geometric Least Squares Mean, Test): 2080 ng·h/mL; AUC(0-inf) (oral, Mild vs Normal: Mild hepatic impairment, paired analysis, read-out: AUC0-∞, Geometric Least Squares Mean, Test): 2520 ng·h/mL; Cmax (oral, Mild vs Normal: Mild hepatic impairment, paired analysis, read-out: Cmax, Geometric Least Squares Mean, Test): 182 ng/mL; AUC(0-t) (oral, Mild vs Normal: matched Normal hepatic function, paired analysis, read-out: AUC0-t, Geometric Least Squares Mean, Reference): 2820 ng·h/mL; AUC(0-inf) (oral, Mild vs Normal: matched Normal hepatic function, paired analysis, read-out: AUC0-∞, Geometric Least Squares Mean, Reference): 3020 ng·h/mL; Cmax (oral, Mild vs Normal: matched Normal hepatic function, paired analysis, read-out: Cmax, Geometric Least Squares Mean, Reference): 303 ng/mL; AUC(0-t) (oral, Moderate vs Normal: Moderate hepatic impairment, paired analysis, read-out: AUC0-t, Geometric Least Squares Mean, Test): 2380 ng·h/mL; AUC(0-inf) (oral, Moderate vs Normal: Moderate hepatic impairment, paired analysis, read-out: AUC0-∞, Geometric Least Squares Mean, Test): 2430 ng·h/mL; Cmax (oral, Moderate vs Normal: Moderate hepatic impairment, paired analysis, read-out: Cmax, Geometric Least Squares Mean, Test): 210 ng/mL; AUC(0-t) (oral, Moderate vs Normal: matched Normal hepatic function, paired analysis, read-out: AUC0-t, Geometric Least Squares Mean, Reference): 2550 ng·h/mL; AUC(0-inf) (oral, Moderate vs Normal: matched Normal hepatic function, paired analysis, read-out: AUC0-∞, Geometric Least Squares Mean, Reference): 2980 ng·h/mL; Cmax (oral, Moderate vs Normal: matched Normal hepatic function, paired analysis, read-out: Cmax, Geometric Least Squares Mean, Reference): 247 ng/mL; AUC(0-t) (po, Mild Hepatic Impairment, 200 mg single oral dose, read-out: AUC0-t, Arithmetic Mean): 2550 ng·h/mL; AUC(0-t) (po, Mild Hepatic Impairment, 200 mg single oral dose, read-out: AUC0-t, Geometric Mean): 2070 ng·h/mL; AUC(0-t) (po, Mild Hepatic Impairment, 200 mg single oral dose, read-out: AUC0-t, Median): 1940 ng·h/mL; AUC(0-inf) (po, Mild Hepatic Impairment, 200 mg single oral dose, read-out: AUC0-∞, Arithmetic Mean): 2840 ng·h/mL; AUC(0-inf) (po, Mild Hepatic Impairment, 200 mg single oral dose, read-out: AUC0-∞, Geometric Mean): 2310 ng·h/mL; AUC(0-inf) (po, Mild Hepatic Impairment, 200 mg single oral dose, read-out: AUC0-∞, Median): 2140 ng·h/mL; Cmax (po, Mild Hepatic Impairment, 200 mg single oral dose, read-out: Cmax, Arithmetic Mean): 291 ng/mL; Cmax (po, Mild Hepatic Impairment, 200 mg single oral dose, read-out: Cmax, Geometric Mean): 182 ng/mL; Cmax (po, Mild Hepatic Impairment, 200 mg single oral dose, read-out: Cmax, Median): 202 ng/mL; Vd/F (po, Mild Hepatic Impairment, 200 mg single oral dose, read-out: VZ/F, Arithmetic Mean): 1830 L; Vd/F (po, Mild Hepatic Impairment, 200 mg single oral dose, read-out: VZ/F, Geometric Mean): 1400 L; Vd/F (po, Mild Hepatic Impairment, 200 mg single oral dose, read-out: VZ/F, Median): 1100 L; half-life (po, Mild Hepatic Impairment, 200 mg single oral dose, read-out: t1/2, Arithmetic Mean (converted)): 13.3 ± 5.58 h; half-life (po, Mild Hepatic Impairment, 200 mg single oral dose, read-out: t1/2, Geometric Mean (converted)): 12.4 h; half-life (po, Mild Hepatic Impairment, 200 mg single oral dose, read-out: t1/2, Median (converted)): 12.3 h; Tmax (po, Mild Hepatic Impairment, 200 mg single oral dose, read-out: tmax, Arithmetic Mean): 3.6 h; Tmax (po, Mild Hepatic Impairment, 200 mg single oral dose, read-out: tmax, Geometric Mean): 2.8 h; Tmax (po, Mild Hepatic Impairment, 200 mg single oral dose, read-out: tmax, Median): 2.5 h; concentration at 0.5 h [4]: 41.5 ng/mL; concentration at 0.5 h [5]: 29.4 ng/mL; concentration at 0.5 h [6]: 30.2 ng/mL; concentration at 1 h [4]: 178 ng/mL; concentration at 1 h [5]: 112 ng/mL; concentration at 1 h [6]: 149 ng/mL; concentration at 2 h [4]: 279 ng/mL; concentration at 2 h [5]: 165 ng/mL; concentration at 2 h [6]: 194 ng/mL; concentration at 3 h [4]: 220 ng/mL; concentration at 3 h [5]: 138 ng/mL; concentration at 3 h [6]: 155 ng/mL; concentration at 4 h [4]: 164 ng/mL; concentration at 4 h [5]: 112 ng/mL; concentration at 4 h [6]: 95.8 ng/mL; concentration at 6 h [4]: 122 ng/mL; concentration at 6 h [5]: 95.4 ng/mL; concentration at 6 h [6]: 91.3 ng/mL; concentration at 8 h [4]: 96 ng/mL; concentration at 8 h [5]: 77.8 ng/mL; concentration at 8 h [6]: 68.5 ng/mL; concentration at 12 h [4]: 66.6 ng/mL; concentration at 12 h [5]: 54.9 ng/mL; concentration at 12 h [6]: 43.9 ng/mL; concentration at 16 h [4]: 54.3 ng/mL; concentration at 16 h [5]: 45.3 ng/mL; concentration at 16 h [6]: 39.6 ng/mL; concentration at 24 h [4]: 34.5 ng/mL; concentration at 24 h [5]: 29 ng/mL; concentration at 24 h [6]: 26 ng/mL; concentration at 36 h [4]: 16.1 ng/mL; concentration at 36 h [5]: 15.2 ng/mL; concentration at 36 h [6]: 13.8 ng/mL; concentration at 48 h [4]: 8.5 ng/mL; concentration at 48 h [5]: 9.97 ng/mL; concentration at 48 h [6]: 7.26 ng/mL; AUC(0-t) (po, Moderate Hepatic Impairment, 200 mg single oral dose, read-out: AUC0-t, Arithmetic Mean): 2590 ng·h/mL; AUC(0-t) (po, Moderate Hepatic Impairment, 200 mg single oral dose, read-out: AUC0-t, Geometric Mean): 2380 ng·h/mL; AUC(0-t) (po, Moderate Hepatic Impairment, 200 mg single oral dose, read-out: AUC0-t, Median): 2450 ng·h/mL; AUC(0-inf) (po, Moderate Hepatic Impairment, 200 mg single oral dose, read-out: AUC0-∞, Arithmetic Mean): 2660 ng·h/mL; AUC(0-inf) (po, Moderate Hepatic Impairment, 200 mg single oral dose, read-out: AUC0-∞, Geometric Mean): 2460 ng·h/mL; AUC(0-inf) (po, Moderate Hepatic Impairment, 200 mg single oral dose, read-out: AUC0-∞, Median): 2590 ng·h/mL; Cmax (po, Moderate Hepatic Impairment, 200 mg single oral dose, read-out: Cmax, Arithmetic Mean): 239 ng/mL; Cmax (po, Moderate Hepatic Impairment, 200 mg single oral dose, read-out: Cmax, Geometric Mean): 210 ng/mL; Cmax (po, Moderate Hepatic Impairment, 200 mg single oral dose, read-out: Cmax, Median): 180 ng/mL; Vd/F (po, Moderate Hepatic Impairment, 200 mg single oral dose, read-out: VZ/F, Arithmetic Mean): 2250 L; Vd/F (po, Moderate Hepatic Impairment, 200 mg single oral dose, read-out: VZ/F, Geometric Mean): 2020 L; Vd/F (po, Moderate Hepatic Impairment, 200 mg single oral dose, read-out: VZ/F, Median): 2090 L; half-life (po, Moderate Hepatic Impairment, 200 mg single oral dose, read-out: t1/2, Arithmetic Mean (converted)): 18.7 ± 3.97 h
